Assay results published in patent US10329268B2, “Processes for preparing medicaments for the treatment of cardiovascular diseases and intermediates for use therein” (Bial-Portela & CA., S.A., priority 2013, dated 2019).
Blank lines part the entries; values can stand above or below the molecule they belong to.

How the values were obtained:
[1] = Solubility in organic solvents according to Eur. Ph. Chapter 5.11; format: physicochemical
Procedure: The solubility of non-micronized and micronized (R)-5-(2-(benzylamino)ethyl)-1-(6,8-difluorochroman-3-yl)-1H-imidazole-2(3H)-thione in several organic solvents was determined.
Solubility Solubility was evaluated according to Eur. Ph. Chapter 5.11 at room temperature.
The following descriptions are used to describe the degree of solubility: […]

[2] = Aqueous solubility at 37° C. in solutions of pH 1.2 to 9.0; format: physicochemical
Procedure: The aqueous solubility of (R)-5-(2-(benzylamino)ethyl)-1-(6,8-difluorochroman-3-yl)-1H-imidazole-2(3H)-thione was determined in triplicate at 37° C. Aqueous solutions of HCl (pH 1.2, 2.0, 3.0), potassium chloride (pH 1.2, 2.0), acid phthalate (pH 3.0), acetate (pH 4.5, 5.5), phosphate (pH 7.4) and boric acid (pH 9.0) were tested.

dopamine-β-hydroxylase = molecular target: T1, dopamine-β-hydroxylase (Homo sapiens, UniProt P09172); conditions: background statement, WO2004/033447 / WO2008/136695; cited from earlier work
T1 sequence (P09172 1-617): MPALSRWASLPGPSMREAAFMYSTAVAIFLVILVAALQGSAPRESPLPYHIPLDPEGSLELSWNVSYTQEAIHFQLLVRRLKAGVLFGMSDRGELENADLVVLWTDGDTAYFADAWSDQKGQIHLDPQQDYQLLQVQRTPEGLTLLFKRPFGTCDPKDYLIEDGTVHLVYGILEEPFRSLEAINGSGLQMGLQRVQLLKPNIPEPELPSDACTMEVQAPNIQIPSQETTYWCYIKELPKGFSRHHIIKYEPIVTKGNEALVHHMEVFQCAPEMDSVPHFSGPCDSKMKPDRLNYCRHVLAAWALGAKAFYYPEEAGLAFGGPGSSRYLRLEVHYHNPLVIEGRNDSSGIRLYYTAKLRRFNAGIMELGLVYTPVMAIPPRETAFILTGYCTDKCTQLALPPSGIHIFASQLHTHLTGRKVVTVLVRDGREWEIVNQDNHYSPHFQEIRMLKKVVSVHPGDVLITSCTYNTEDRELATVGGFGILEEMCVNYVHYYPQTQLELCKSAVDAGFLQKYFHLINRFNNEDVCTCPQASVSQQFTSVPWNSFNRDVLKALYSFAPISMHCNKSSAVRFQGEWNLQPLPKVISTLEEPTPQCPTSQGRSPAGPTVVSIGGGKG

[3] = background statement; cited from earlier work

Solubility description ([1]; micronized particles, 2-propanol, room temperature): Insoluble
Solubility description ([1]; micronized particles, Cyclohexane, room temperature): Insoluble
Solubility description ([1]; micronized particles, Dimethylformamide, room temperature): Sparingly soluble (from 30 to 100 parts)
Solubility description ([1]; micronized particles, N,N-methylpirrolidone, room temperature): Sparingly soluble (from 30 to 100 parts)
Solubility description ([1]; micronized particles, Tetrahydrofuran, room temperature): Sparingly soluble (from 30 to 100 parts)
Solubility description ([1]; non-micronized particles, 2-propanol, room temperature): Insoluble
Solubility description ([1]; non-micronized particles, Cyclohexane, room temperature): Insoluble
Solubility description ([1]; non-micronized particles, DMSO, room temperature): Sparingly soluble (from 30 to 100 parts)
Solubility description ([1]; non-micronized particles, Dimethylformamide, room temperature): Sparingly soluble (from 30 to 100 parts)
Solubility description ([1]; non-micronized particles, Hexafluoroisopropanol, room temperature): Sparingly soluble (from 30 to 100 parts)
Solubility description ([1]; non-micronized particles, Iso-octane (2,2,4-trimethylpentane), room temperature): Insoluble
Solubility description ([1]; non-micronized particles, Methanol or acetonitrile acidified with 0.1% formic acid or TFA, room temperature): Sparingly soluble (from 30 to 100 parts)
Solubility description ([1]; non-micronized particles, N,N-methylpirrolidone, room temperature): Sparingly soluble (from 30 to 100 parts)
Solubility description ([1]; non-micronized particles, Tetrahydrofuran, room temperature): Sparingly soluble (from 30 to 100 parts)
Change in the solubility profile, before versus after micronization ([1]; organic solvents, room temperature): no overall significant changes
Medium of maximum aqueous solubility [2]: HCl 0.01 (pH 2.0)
Aqueous solubility after micronization relative to non-micronized ([2]; HCl 0.01 (pH 2.0)): lower
Aqueous solubility as a function of pH ([2]; pH 1.2 to 9.0, both non-micronized and micronized): decreases with the increase of pH
Structure (SMILES): Fc1cc(F)c2c(c1)C[C@@H](n1c(CCNCc3ccccc3)c[nH]c1=S)CO2 [(R)-5-(2-(benzylamino)ethyl)-1-(6,8-difluorochroman-3-yl)-1H-imidazole-2(3H)-thione]
Solubility in polar organic aprotic solvents ([1]; all of the polar organic aprotic solvents tested): either sparingly soluble, slightly soluble or very slightly soluble
Solubility description ([1]; micronized particles, 1,4-Dioxane, room temperature): Very slightly soluble (from 1000 to 10,000 parts)
Solubility description ([1]; micronized particles, Absolute ethanol, room temperature): Very slightly soluble (from 1000 to 10,000 parts)
Solubility description ([1]; micronized particles, Acetone, room temperature): Slightly soluble (from 100 to 1000 parts)
Solubility description ([1]; micronized particles, Acetonitrile, room temperature): Very slightly soluble (from 1000 to 10,000 parts)
Solubility description ([1]; micronized particles, Chloroform, room temperature): Slightly soluble (from 100 to 1000 parts)
Solubility description ([1]; micronized particles, DMSO, room temperature): Slightly soluble (from 100 to 1000 parts)
Solubility description ([1]; micronized particles, Dichloromethane, room temperature): Very slightly soluble (from 1000 to 10,000 parts)
Solubility description ([1]; micronized particles, Ethyl acetate, room temperature): Very slightly soluble (from 1000 to 10,000 parts)
Solubility description ([1]; micronized particles, Iso-octane (2,2,4-trimethylpentane), room temperature): Practically insoluble (greater than or equal to 10,000 parts)
Solubility description ([1]; micronized particles, Methanol or acetonitrile acidified with 0.1% formic acid or TFA, room temperature): Slightly soluble (from 100 to 1000 parts)
Solubility description ([1]; micronized particles, Methanol, room temperature): Very slightly soluble (from 1000 to 10,000 parts)
Solubility description ([1]; micronized particles, Methyl ethyl ketone, room temperature): Slightly soluble (from 100 to 1000 parts)
Solubility in polar organic solvents ([1]; most of the polar organic solvents tested): mostly either sparingly soluble, slightly soluble or very slightly soluble
Solubility description ([1]; non-micronized particles, 1,4-Dioxane, room temperature): Slightly soluble (from 100 to 1000 parts)
Solubility description ([1]; non-micronized particles, Absolute ethanol, room temperature): Practically insoluble (greater than or equal to 10,000 parts)
Solubility description ([1]; non-micronized particles, Acetone, room temperature): Slightly soluble (from 100 to 1000 parts)
Solubility description ([1]; non-micronized particles, Acetonitrile, room temperature): Very slightly soluble (from 1000 to 10,000 parts)
Solubility description ([1]; non-micronized particles, Chloroform, room temperature): Very slightly soluble (from 1000 to 10,000 parts)
Solubility description ([1]; non-micronized particles, Dichloromethane, room temperature): Slightly soluble (from 100 to 1000 parts)
Solubility description ([1]; non-micronized particles, Ethyl acetate, room temperature): Very slightly soluble (from 1000 to 10,000 parts)
Solubility description ([1]; non-micronized particles, Isopropyl acetate, room temperature): Very slightly soluble (from 1000 to 10,000 parts)
Solubility description ([1]; non-micronized particles, Methanol, room temperature): Very slightly soluble (from 1000 to 10,000 parts)
Solubility description ([1]; non-micronized particles, Methyl ethyl ketone, room temperature): Slightly soluble (from 100 to 1000 parts)
Solubility description ([1]; non-micronized particles, Toluene, room temperature): Very slightly soluble (from 1000 to 10,000 parts)
Solubility description ([1]; non-micronized particles, Trifluoroethanol, room temperature): Slightly soluble (from 100 to 1000 parts)

Structure (SMILES): Cl.NCCc1c[nH]c(=S)n1[C@H]1COc2c(F)cc(F)cc2C1 [Compound 1, (R)-5-(2-Aminoethyl)-1-(6,8-difluorochroman-3-yl)-1,3-dihydroimidazole-2-thione hydrochloride]
Inhibition of dopamine-β-hydroxylase (DβH) (dopamine-β-hydroxylase): potent
Toxicity [3]: non-toxic
